Target: T1, APOL1 G1 (Homo sapiens, UniProt O14791, I384M/S342G)
T1 sequence (O14791 28-398 S342G/I384M): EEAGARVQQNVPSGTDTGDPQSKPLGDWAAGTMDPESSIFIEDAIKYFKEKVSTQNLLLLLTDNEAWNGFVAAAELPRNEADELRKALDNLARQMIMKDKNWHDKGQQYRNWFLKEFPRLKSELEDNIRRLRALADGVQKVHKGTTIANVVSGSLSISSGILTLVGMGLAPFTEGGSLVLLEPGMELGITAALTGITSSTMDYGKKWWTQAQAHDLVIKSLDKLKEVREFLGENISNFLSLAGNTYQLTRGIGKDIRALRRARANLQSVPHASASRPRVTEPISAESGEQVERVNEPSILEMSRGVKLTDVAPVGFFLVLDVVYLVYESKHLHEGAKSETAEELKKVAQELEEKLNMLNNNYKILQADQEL
Assay: MultiTox-Fluor Multiplex Cytotoxicity Assay in tet-inducible APOL1 G1 T-REx-HEK293 cells (clone G1 DC3.25)
Format: cell-based
Parameters: expressed in transfected cells; host or cells: T-REx HEK293, pAAVS1-Puro-APOL1 G1, clone G1 DC3.25
Conditions: Multi-Tox Assay; IP50 = IC50 for cell proliferation; APOL1 variant cell line not given
Description: The MultiTox-Fluor Multiplex Cytotoxicity Assay is a single-reagent-addition, homogeneous, fluorescence assay that measures the number of live and dead cells simultaneously in culture wells. The assay measures cell viability and cytotoxicity by detecting two distinct protease activities. The live-cell protease activity is restricted to intact viable cells and is measured using a fluorogenic, cell-permeant peptide glycyl-phenylalanylamino fluorocoumarin (GF-AFC) substrate. The substrate enters intact cells, where it is cleaved to generate a fluorescent signal proportional to the number of living cells. […] A second, cell-impermeant, fluorogenic peptide substrate (bis-AAF-R110 Substrate) is used to measure dead-cell protease that has been released from cells that have lost membrane integrity. A ratio of dead to live cells is used to normalize data.
Briefly, the tet-inducible transgenic APOL1 T-REx-HEK293 cell lines were incubated with 50 ng/mL tet to induce APOL1 in the presence of 3-(2-(4-fluorophenyl)-1H-indol-3-yl)-N-((3S,4R)-4-hydroxy-2-oxopyrrolidin-3-yl)propenamide at […], 0.0045, 0.0015, 0.0005 μM in duplicate for 24 hours in a humidified 37° C. incubator. The MultiTox reagent was added to each well and placed back in the incubator for an additional 30 minutes. The plate was read on the EnVision plate reader. A ratio of dead to live cells was used to normalize, and data was imported, analyzed and fit using Genedata Screener (Basel, Switzerland) software. Data was normalized using percent of control, no tet (100% viability), and 50 ng/mL tet treated (0% viability), and fit using Smart Fit. The reagents, methods, and complete protocol for the MultiTox assay are described below.
Human embryonic kidney (HEK293) cell lines containing a tet-inducible expression system (T-REx™; Invitrogen, Carlsbad, CA) and Adeno-associated virus site 1 pAAVS1-Puro-APOL1 G0 or pAAVS1-Puro-APOL1 G1 or pAAVS1-Puro-APOL1 G2 Clones G0 DC2.13, G1 DC3.25, and G2 DC4.44 were grown in a T-225 flask at ˜90% confluency in cell growth media (DMEM, 10% Tet-free FBS, 2 mM L-glutamine, 100 Units/mL penicillin-streptomycin, 5 μg/mL blasticidin S HCl, 1 μg/mL puromycin dihydrochloride). Cells were washed with DPBS and then trypsinized to dissociate from the flask. Media was used to quench the trypsin, cells were then pelleted at 200 g and resuspended in fresh cell assay media (DMEM, 2% Tet-free FBS, 2 mM L-glutamine, 100 Units/mL penicillin-streptomycin). Cells were counted and diluted to 1.17×10^6 cells/mL. 20 μL of cells (23,400/well) were dispensed to every well of a 384-well Poly-D-Lysine coated plate using the Multidrop dispenser. The plates were then incubated at room temperature for one hour.
Tetracycline is needed to induce APOL1 expression. 1 mg/mL tet stock in water was diluted to 250 ng/mL (5×) in cell assay media. 60 μL of cell assay media (no tet control) was dispensed in columns 1 and 24, and 60 μL of 5× tet was dispensed in 384-PP-round bottom plate in columns 2 to 23 with the Multidrop dispenser.
Assay ready plates from the Global Compound Archive were ordered using template 384_APOL1Cell_DR10n2_50 μM_v3. Compounds were dispensed at 200 nL in DMSO. The final top concentration was 10 μM with a 10 point 3-fold dilution in duplicate in the MultiTox assay.
20 μL were transferred from the 5× tet plate to the ARP and mixed, then 5 μL of 5× tet and the compounds were transferred to the cell plate and mixed using the Bravo. The cell plate was placed in the humidified 37° C. 5% CO2 incubator for 24 hours.
The MultiTox-Fluor Multiplex Cytotoxicity Assay was performed in accordance with the manufacturer's protocol. After cells were incubated with tet and compound for 24 hours, 25 μL of 1× MultiTox reagent was added to each well using the Multidrop dispenser; the plates were placed on a plate shaker (600 rpm) for 2 minutes, then centrifuged briefly and placed back in the 37° C. incubator for 30 minutes. […]

Q: How did the IC50 turn out when `Cn1cc(C2CC3(CC(C(F)F)N2)OCCc2cc(C(F)(F)F)sc23)nn1` (centres unmarked) [Compound 389, 2′-(difluoromethyl)-6′-(1-methyltriazol-4-yl)-2-(trifluoromethyl)spiro[4,5-dihydrothieno[2,3-c]pyran-7,4′-piperidine]] was run?
A: Its IC50 is 0.05 to 0.5 µM.

Q: For `C[C@H]1C[C@@]2(C[C@@H](c3cn(C)nn3)N1)OC[C@@H](O)c1sc(C(F)(F)F)cc12` [Compound 390, (2′S,4S,6′S, 7R)-2′-methyl-6′-(1-methyltriazol-4-yl)-2-(trifluoromethyl)spiro[6,7-dihydrothieno[3,2-c]pyran-4,4′-piperidine]-7-ol], which IC50 is on record?
A: The IC50 was less than 0.05 µM.

From patent US12421249B2, “Inhibitors of APOL1 and methods of using same” (Vertex Pharmaceuticals Incorporated, priority 2020, dated 2025)
